In experiment [1] the target is T1, TRPV4 (rat) (Rattus norvegicus, UniProt Q9ERZ8).
T1 construct: expressed in transfected cells; host or cells: N2a (mouse neuroblastoma) cells
Nature of the experiment: Ca++ imaging in N2a cells with directed expression of TRPV4, activation with GSK101. It counts as cell-based. The conditions noted are these: for IC50: N2a cells, rat TRPV4, 5 nM GSK101, averaged peak ΔCa++, read-out: IC50, inhibition of TRPV4-mediated Ca++ influx; for inhibition of TRPV4-mediated Ca++ influx, first round screening: inhibitor 5 μM, 5 nM GSK101. The source says: FIGS. 26A-26B: Assessment of compounds in N2a cells with directed expression of TRPV4. […] The number on each bar corresponds to average peak ΔCa++ concentrations in ≈100 cells. […] Plot generated from averaged peak ΔCa++ concentration of 75 cells per data-point.

Experiment [2] deals with TRPV4 (Homo sapiens, UniProt Q9HBA0). Kind of experiment: TRPV4-mediated calcium influx in N2a cells with targeted expression of human TRPV4. It counts as cell-based. On the set-up: expressed in transfected cells; host or cells: N2a cells. The conditions noted are these: 2.5 μM inhibitor, pre-incubation 10 min, 10 nM GSK101.
Sequence of TRPV4 (Q9HBA0 whole entry): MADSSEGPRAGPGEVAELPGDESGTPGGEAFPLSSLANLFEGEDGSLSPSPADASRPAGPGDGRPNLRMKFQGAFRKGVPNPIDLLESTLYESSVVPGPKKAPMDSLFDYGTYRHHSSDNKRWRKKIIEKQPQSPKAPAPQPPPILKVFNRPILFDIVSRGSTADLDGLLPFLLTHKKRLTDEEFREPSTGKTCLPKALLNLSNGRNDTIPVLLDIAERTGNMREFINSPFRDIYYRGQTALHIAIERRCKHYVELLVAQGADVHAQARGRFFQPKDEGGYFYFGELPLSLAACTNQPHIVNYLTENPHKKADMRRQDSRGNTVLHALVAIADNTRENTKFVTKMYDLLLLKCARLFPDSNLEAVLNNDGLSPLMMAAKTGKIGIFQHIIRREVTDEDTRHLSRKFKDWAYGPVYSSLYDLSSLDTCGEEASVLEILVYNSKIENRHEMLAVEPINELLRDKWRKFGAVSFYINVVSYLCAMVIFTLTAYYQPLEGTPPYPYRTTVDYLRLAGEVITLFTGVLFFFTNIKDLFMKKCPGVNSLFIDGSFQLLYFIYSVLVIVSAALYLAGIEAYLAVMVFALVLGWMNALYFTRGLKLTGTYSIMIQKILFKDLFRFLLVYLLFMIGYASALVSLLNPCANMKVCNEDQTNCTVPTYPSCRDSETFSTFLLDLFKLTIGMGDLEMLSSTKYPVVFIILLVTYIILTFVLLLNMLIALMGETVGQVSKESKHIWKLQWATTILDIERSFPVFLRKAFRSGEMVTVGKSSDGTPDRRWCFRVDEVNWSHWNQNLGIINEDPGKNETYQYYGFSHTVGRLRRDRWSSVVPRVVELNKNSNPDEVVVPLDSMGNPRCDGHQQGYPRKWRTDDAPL
Experiment [3] concerns BL6 mice, whisker-pad injection of formalin. Nature of the experiment: Formalin-evoked nocifensive behavior, compound pre-injected into the whiskerpad. The conditions noted are these: 0.5 mM/10 μL pre-injected into whiskerpad 15 min before formalin. The experiment is classed as in vivo, mouse. As to the method:
Compounds were tested for their effect in reducing pain using an in vivo pain model in mice. For mouse formalin-evoked irritant behavior measurements, mice were well-fed, well-rested, and tested at the same time of day, at the same time-point of their circadian rhythm. They were allowed to acclimate to a plexiglas chamber for at least 30 min before testing, and received 10 μL subcutaneous injection of 4% of formalin (diluted from an aqueous solution of commercial 37% formaldehyde with normal saline (NS)) through a 30-gauge needle into the right whiskerpad, as further detailed in Luccarini et al. (J. Pain, 2006, 7, 908-914). Normal saline was used as control injection. After injection, mice were immediately placed back into the chamber and the rubbing behavior was recorded by a private consumer-type video-camera for a 45 min observation period. The recording time was divided into 9 blocks of 5 min, and a nociceptive score was determined per block by measuring the time that the animals spent rubbing the injected area predominantly with the ipsilateral fore-paw and rarely with hind-paw. This rubbing behavior with fore-paw is evoked by pain, which is distinct from itch behavior. Behavioral analysis was conducted by observers blinded to treatment.
To investigate the effects of the specific compounds GSK205, 16-8, and 16-19 on formalin-induced nociceptive behavior, mice received a single subcutaneous injection of the compounds into the whiskerpad (10 μL, dissolved in 4% DMSO) 15 min before formalin injection. Control animals received the same volume of NS, 4% DMSO.

In experiment [4] the target is T2, TRPA1 (mouse) (Mus musculus, UniProt Q8BLA8).
T2 construct: expressed in transfected cells; host or cells: N2a cells, eGFP co-transfected
T2 sequence (Q8BLA8 whole entry): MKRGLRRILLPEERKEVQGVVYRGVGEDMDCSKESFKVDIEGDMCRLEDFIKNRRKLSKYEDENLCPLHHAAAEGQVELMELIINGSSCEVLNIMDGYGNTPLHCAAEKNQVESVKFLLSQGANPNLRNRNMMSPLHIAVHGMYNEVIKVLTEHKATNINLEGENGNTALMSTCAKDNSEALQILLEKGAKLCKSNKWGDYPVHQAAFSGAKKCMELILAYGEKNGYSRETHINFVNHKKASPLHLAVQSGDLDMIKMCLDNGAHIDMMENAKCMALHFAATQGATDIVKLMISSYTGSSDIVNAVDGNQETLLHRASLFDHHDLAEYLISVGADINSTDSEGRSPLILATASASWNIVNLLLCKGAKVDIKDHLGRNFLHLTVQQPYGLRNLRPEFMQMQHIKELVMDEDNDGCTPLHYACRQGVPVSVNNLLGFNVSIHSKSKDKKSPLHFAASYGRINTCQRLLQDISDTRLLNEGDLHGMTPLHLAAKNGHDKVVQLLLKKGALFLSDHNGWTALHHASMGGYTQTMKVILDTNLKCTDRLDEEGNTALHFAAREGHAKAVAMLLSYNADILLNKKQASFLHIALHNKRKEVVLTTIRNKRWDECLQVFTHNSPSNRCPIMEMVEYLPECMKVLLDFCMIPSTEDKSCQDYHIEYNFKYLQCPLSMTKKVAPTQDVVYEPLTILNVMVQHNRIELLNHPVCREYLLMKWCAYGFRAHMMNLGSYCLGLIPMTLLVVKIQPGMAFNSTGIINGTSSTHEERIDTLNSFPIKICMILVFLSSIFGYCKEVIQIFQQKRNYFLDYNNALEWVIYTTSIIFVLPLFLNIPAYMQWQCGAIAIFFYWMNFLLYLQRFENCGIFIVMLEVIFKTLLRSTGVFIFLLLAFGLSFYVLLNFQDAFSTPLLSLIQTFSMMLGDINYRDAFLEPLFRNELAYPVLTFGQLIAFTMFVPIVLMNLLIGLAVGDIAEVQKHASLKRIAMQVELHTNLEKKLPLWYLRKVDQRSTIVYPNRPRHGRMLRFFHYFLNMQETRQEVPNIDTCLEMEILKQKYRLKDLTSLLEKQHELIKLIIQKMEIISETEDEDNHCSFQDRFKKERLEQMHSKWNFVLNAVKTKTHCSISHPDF
Kind of experiment: Ca++ imaging in N2a cells with directed expression of TRPA1, mustard oil activation. Particulars: mouse TRPA1, 100 μM mustard oil, read-out: IC50, inhibition of TRPA1. It counts as cell-based. The source says:
Mean±SEM is shown, ≥100 cells per condition. […] Plot generated from averaged peak ΔCa++ concentration of […] per data-point.

The target of experiment [5] is T3, human TRPA1 (Homo sapiens, UniProt O75762).
T3 construct: expressed in transfected cells; host or cells: N2a cells, co-transfected with eGFP plasmid
T3 sequence (O75762 whole entry): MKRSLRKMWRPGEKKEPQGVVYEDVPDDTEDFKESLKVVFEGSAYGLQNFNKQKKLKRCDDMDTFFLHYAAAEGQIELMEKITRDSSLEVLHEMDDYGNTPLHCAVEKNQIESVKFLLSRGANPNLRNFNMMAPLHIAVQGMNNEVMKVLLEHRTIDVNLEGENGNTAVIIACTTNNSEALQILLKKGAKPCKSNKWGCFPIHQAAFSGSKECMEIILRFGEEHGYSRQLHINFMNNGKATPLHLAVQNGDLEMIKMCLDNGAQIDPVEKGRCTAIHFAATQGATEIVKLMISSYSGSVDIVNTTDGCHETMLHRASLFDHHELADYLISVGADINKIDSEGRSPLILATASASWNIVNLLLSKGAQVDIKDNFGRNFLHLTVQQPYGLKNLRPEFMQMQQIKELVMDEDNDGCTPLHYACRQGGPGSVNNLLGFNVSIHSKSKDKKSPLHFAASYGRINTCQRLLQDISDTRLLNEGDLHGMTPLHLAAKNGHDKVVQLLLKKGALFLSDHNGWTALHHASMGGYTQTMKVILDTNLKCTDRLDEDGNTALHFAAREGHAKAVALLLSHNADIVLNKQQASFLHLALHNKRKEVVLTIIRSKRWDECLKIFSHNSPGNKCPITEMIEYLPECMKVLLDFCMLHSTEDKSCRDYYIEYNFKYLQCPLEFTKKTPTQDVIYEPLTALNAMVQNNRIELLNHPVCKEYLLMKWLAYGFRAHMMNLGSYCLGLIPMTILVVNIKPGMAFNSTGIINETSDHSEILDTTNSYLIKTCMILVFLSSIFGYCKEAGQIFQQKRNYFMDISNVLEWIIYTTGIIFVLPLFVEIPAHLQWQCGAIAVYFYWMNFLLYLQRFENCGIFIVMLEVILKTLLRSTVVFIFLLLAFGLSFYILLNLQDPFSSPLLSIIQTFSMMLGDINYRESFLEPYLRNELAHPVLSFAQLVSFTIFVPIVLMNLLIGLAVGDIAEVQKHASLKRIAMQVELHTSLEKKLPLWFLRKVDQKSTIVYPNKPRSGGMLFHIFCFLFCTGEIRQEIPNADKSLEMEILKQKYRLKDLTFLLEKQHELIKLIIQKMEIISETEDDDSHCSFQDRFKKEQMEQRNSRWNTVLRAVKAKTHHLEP
Kind of experiment: Ca2+ transient in N2a cells transfected with human TRPA1, AITC activation. The experiment is classed as cell-based. Particulars: GSK205: doses below or equaling 25 μM. As to the method: Compounds were tested for their effect on TRPA1. N2a permanent cells were transfected with human TRPA1 cDNA, using a pcDNA3.1 expression plasmid. They were co-transfected with eGFP-expressing plasmid, or, for control, with eGFP plasmid only.
Cells were then pre-exposed to 5 μM of compounds 16-8 and 16-19 for 10 min.

Where “and” joins values, the source holds several entries; their conditions need not be identical. Identical values can stand only once.

T1 sequence (Q9ERZ8 whole entry): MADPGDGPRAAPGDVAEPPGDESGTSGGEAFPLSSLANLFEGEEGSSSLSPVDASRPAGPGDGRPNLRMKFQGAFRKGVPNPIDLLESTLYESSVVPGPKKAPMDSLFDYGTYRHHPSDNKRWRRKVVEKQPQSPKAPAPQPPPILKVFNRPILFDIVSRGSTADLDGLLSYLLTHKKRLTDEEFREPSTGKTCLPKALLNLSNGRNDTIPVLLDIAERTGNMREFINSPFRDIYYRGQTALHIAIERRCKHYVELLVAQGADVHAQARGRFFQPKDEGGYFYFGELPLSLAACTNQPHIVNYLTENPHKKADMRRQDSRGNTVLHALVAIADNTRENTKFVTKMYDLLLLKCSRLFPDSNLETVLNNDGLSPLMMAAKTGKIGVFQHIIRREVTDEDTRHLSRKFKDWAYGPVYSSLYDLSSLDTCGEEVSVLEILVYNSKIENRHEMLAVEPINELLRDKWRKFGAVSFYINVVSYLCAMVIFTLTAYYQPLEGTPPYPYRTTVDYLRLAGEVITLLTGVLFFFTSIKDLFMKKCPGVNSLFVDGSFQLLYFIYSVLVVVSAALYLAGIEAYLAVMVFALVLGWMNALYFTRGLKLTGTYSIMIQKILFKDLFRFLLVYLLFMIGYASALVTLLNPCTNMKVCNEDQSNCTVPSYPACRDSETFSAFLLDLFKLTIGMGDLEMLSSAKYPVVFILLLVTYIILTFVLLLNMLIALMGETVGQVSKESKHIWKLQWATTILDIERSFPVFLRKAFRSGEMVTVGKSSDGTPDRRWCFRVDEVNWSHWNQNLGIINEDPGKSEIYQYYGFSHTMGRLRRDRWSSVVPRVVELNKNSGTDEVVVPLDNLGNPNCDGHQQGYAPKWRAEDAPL

As a reminder, the IC50 is the concentration that inhibits the measured activity by half. For `CN(CCc1ccc(Nc2nc(-c3ccccc3)cs2)cc1)Cc1ccccc1` [Compound 16-8], in experiment [1], the IC50 came to 450 nM and the “inhibition of TRPV4-mediated Ca++ influx, first round screening” value is “virtually eliminated Ca++ influx”. For the same molecule, the “inhibition of TRPV4-mediated calcium influx (peak calcium concentration)” value (from here on “inhibition … (peak calcium concentration)”) in experiment [2] is recorded as “most potent”. In experiment [3], the “nocifensive behavior, in particular second phase” value (“nocifensive behavior” below) is on record as “significant attenuation”. Also, the IC50 in experiment [4] was 410 nM and 430 nM. The “inhibitory activity against human TRPA1” value in experiment [5] was “showed inhibitory activity”.

`CCN(CCc1ccc(Nc2nc(-c3ccccc3)cs2)cc1)Cc1ccccc1` [Compound 16-19]: in experiment [1], the IC50 is 590 nM and 810 nM; the “inhibition of TRPV4-mediated Ca++ influx, first round screening” value was “virtually eliminated Ca++ influx”. For the same molecule, in experiment [1] (from IC50 values, rat TRPV4 in N2a cells), the “increased potency versus parental compound GSK205” value is listed as about 8 fold. Further, the “inhibition … (peak calcium concentration)” value in experiment [2] is reported as “did not show enhanced inhibition over 16-8”. In addition, in experiment [3], the “nocifensive behavior” value is reported as “significant attenuation”. For the same molecule, the half-maximal inhibitory concentration (IC50) in experiment [4] was 430 nM and 410 nM. Besides, in experiment [5], the “inhibitory activity against human TRPA1” value is “showed inhibitory activity”.

As to `CN(CCc1ccc(Nc2nc(-c3cccnc3)cs2)cc1)Cc1ccccc1` [GSK205], the IC50 in experiment [1] is 4190 nM; in experiment [4] it was 5560 ± 400 nM. Moreover, the “inhibition … (peak calcium concentration)” value in experiment [2] was “very low potency”. Further, the “nocifensive behavior” value in experiment [3] was “lack of effect”. Moreover, the “inhibitory activity against human TRPA1” value in experiment [5] is “did not inhibit TRPA1 activity”.
